The values below come from article PMC8132342, “Antimalarial properties and molecular docking analysis of compounds from Dioscorea bulbifera L. as new antimalarial agent candidates” (BMC Complementary Medicine and Therapies, 2021).

Read-outs that look alike come from different tables or passages of the source.

Data set [1] has as its system CQ-sensitive P. falciparum (3D7 strain). The experiment in a line: Antimalarial activity, 3H-hypoxanthine uptake inhibition, 3D7 strain. It counts as cell-based. Particulars: Plasmodium falciparum. The procedure:
(§1) The culture of P. falciparum malaria parasites was continuously performed using standard methods with some modifications. RPMI-1640 medium was supplemented with noninfected type O-positive red blood cells (2% hematocrit), 2 mg/ml sodium bicarbonate, 10 μg/ml hypoxanthine (Sigma-Aldrich, New Delhi, India), 4.8 mg/ml HEPES (Himedia, Mumbai, India), 10% human AB serum and 2.5 μg/ml gentamicin (Sigma-Aldrich, New Delhi, India).
(§2) Antimalarial activity of extracts and compounds from D. bulbifera against P. falciparum K1 and 3D7 strains were assessed by measuring ^3H-hypoxanthine incorporated in parasite nucleic acids using the modified technique of Desjadins et al.. The red cell suspension at 1–2% hematocrit containing 1% ring stage P. falciparum-infected red blood cells was incubated with various concentrations of extracts (2.50–80 μg/ml) and pure compounds (2.5–80 μM) in 96-well culture plates. Parasites were incubated at 37 °C for 24 h, then ^3H-hypoxanthine (25 μl of 0.025 μCi/μl) was added to each well, and the plates were maintained under conditions of 93% N2, 3% O2 and 4% CO2 at 37 °C for an additional 24 h. The samples were transferred to a glass fiber filter (Wallac, Turku, Finland). ^3H-Hypoxanthine uptake was then assessed using a MicroBeta TriLux Liquid Scintillation Counter (PerkinElmer, USA). Each assay condition was performed in triplicate independently. The concentration of samples that inhibited the uptake of ^3H-hypoxanthine by 50% (IC50) assessed by log dose response curve using WinNonlin software version 4.1 (Pharsight Corporation, CA) was used as a marker of antimalarial effect potency.

The test system of data set [2] is chloroquine (CQ)-resistant P. falciparum (K1 strain). As to the kind of experiment: Antimalarial activity, 3H-hypoxanthine uptake inhibition, K1 strain. Type of data set: cell-based, Plasmodium falciparum. The procedure:
as §1, §2

A short description of data set [3]: In vitro cytotoxicity, MTT assay. Type of data set: cell-based. Particulars: African green monkey. The procedure:
The toxicity of D. bulbifera extracts and isolated compounds was assessed by 3-(4,5-dimethythiazol-2-yl)-2,5-diphenyl tetrazolium bromide (MTT) assay according to a previous method. Briefly, Vero cells (Elabscience, Wuhan, Hubei, China) were seeded into 96-well plates at a density of 10^4 cell/ml and incubated for 24 h at 37 °C with 5% CO2. Cells were then treated with various concentrations of extracts and compounds for 48 h at 37 °C with 5% CO2. Doxorubicin (Sigma-Aldrich, New Delhi, India) was used as a toxic control. Subsequently, MTT solution was added to each well, and the plate was incubated for 2 h in a CO2 incubator. The medium was then removed, and 100 μl of DMSO was added to each well. Finally, the optical density was determined at a wavelength of 590 nm using a microplate reader. The assay was performed in duplicate.

The mark [4] stands for this setting: pure compounds, P. falciparum 3D7 strain, mean ± S.D. of three determinations, read-out: IC50 3D7.
Setting [5] is: Plasmodium falciparum, K1, pure compounds, P. falciparum K1 strain, mean ± S.D. of three determinations, read-out: IC50 K1.
The mark [6] stands for this setting: Vero cells, MTT, 48 h, read-out: CC50.

As a reminder, the IC50 is the concentration that inhibits the measured activity by half. For the compound `C[C@H]1[C@H](OC(=O)CCC(=O)O)O[C@@H]2O[C@@]3(C)CC[C@H]4[C@H](C)CC[C@@H]1[C@@]24OO3` [Artesunate, artesunate, reference compound], the IC50 in data set [1] (positive controls (footnote d), P. falciparum 3D7 strain, read-out: IC50 3D7) came to 0.00181 ± 0.00019 µM; in data set [2] (Plasmodium falciparum, K1, positive controls (footnote d), P. falciparum K1 strain, read-out: IC50 K1), 0.00053 ± 4e-05 µM.
Take `CCN(CC)CCCC(C)Nc1ccnc2cc(Cl)ccc12` (stereo not drawn) [Chloroquine, chloroquine, reference compound]: the IC50 in data set [1] (3D7, read-out: IC50 3D7) worked out at 0.00991 ± 0.00056 µM; in data set [2] (Plasmodium falciparum, K1, read-out: IC50 K1), 0.103 ± 0.0045 µM.
As a reminder, the CC50 is the concentration at which the toxic effect on the cells reaches its halfway point. Take `CC(=O)OC1CC2C(=O)OC(c3ccoc3)CC2(C)C2CC3CC(C(=O)O3)C12` (stereo not drawn) [Compound 1, 8-epidiosbulbin E acetate]: the IC50 in data set [1] (setting [4]) and in data set [2] (setting [5]) was above 80 µM each time. In addition, the CC50 at 48 h in data set [3] (setting [6]) was above 80 µM.
Take `CC(=O)OC1CC2(O)C(=O)OC(c3ccoc3)CC2(C)C2CC3CC(C(=O)O3)C12` (stereo not drawn) [Compound 2, 15,16-epoxy-6α-O-acetyl-8β-hydroxy-19-nor-clero-13(16),14-diene-17,12;18,2-diolide]: the IC50 in data set [1] (setting [4]) and in data set [2] (setting [5]) was above 80 µM in each case. Moreover, in data set [3] (setting [6]), the CC50 at 48 h was above 80 µM.
For `CCC(C(C)C)C(C)CC(C)C1CCC2C3C=CC4CC(OC5OC(CO)C(O)C(O)C5O)CCC4(C)C3CCC12C` (stereo not drawn) [Compound 3], the IC50 in data set [1] (setting [4]) and in data set [2] (setting [5]) was above 80 µM throughout. Also, the CC50 at 48 h in data set [3] is above 80 µM.
Regarding `COc1c(-c2ccc(O)c(O)c2)oc2cc(O)cc(OC)c2c1=O` [Compound 4, 3,5-dimethoxy quercetin], the IC50 in data set [1] (setting [4]) amounted to 70.8 ± 2.32 µM; in data set [2] (setting [5]), 44 ± 1.47 µM. Moreover, the half-maximal cytotoxic concentration (CC50) at 48 h in data set [3] (setting [6]) is above 80 µM.
The matching figures for `Oc1cc(O)c2c(c1)O[C@H](c1ccc(O)c(O)c1)[C@@H](O)C2` [Compound 5, (+)-catechin]: above 80 µM, above 80 µM and above 80 µM.
One may read the inhibition as the change of the read-out against control, counted positive when it falls. On to `O=c1c(O)c(-c2ccc(O)c(O)c2)oc2cc(O)cc(O)c12` [Compound 6, quercetin], for which the IC50 in data set [1] (setting [4]) amounted to 51 ± 7.28 µM. Besides, in data set [2] (K1 strain), the “fold higher activity than 3,5-dimethoxyquercetin (4)” value is on record as “approximately 1.5 fold” and the “fold higher activity than quercetin-3-O-β-D-galactopyranoside (14)” value is given as around 2 fold. Besides, the IC50 in data set [2] (setting [5]) is 28.5 ± 0.9 µM. Moreover, 80 µM produced 97% inhibition in data set [2] (Plasmodium falciparum, at a concentration of 80 μM, K1 strain). Besides, the CC50 at 48 h in data set [3] (setting [6]) was above 80 µM.
As to `O=c1c(O)c(-c2ccc(O)cc2)oc2cc(O)cc(O)c12` [Compound 7, kaempferol], the values for the IC50 in data set [1] (setting [4]) and in data set [2] (setting [5]) were above 80 µM and 62.5 ± 1.33 µM, respectively. In addition, the CC50 at 48 h in data set [3] (setting [6]) is above 80 µM.
In the case of `NC(=O)NC1NC(=O)NC1=O` (stereo not drawn) [Compound 8, allantoin], the IC50 in data set [1] (setting [4]) and in data set [2] (setting [5]) was above 80 µM in each case. Further, the CC50 at 48 h in data set [3] (setting [6]) is above 80 µM.
On to `Oc1cc(O)cc(CCc2ccc(O)cc2O)c1` [Compound 9, 2,4,3′,5′-tetrahydroxybibenzyl], for which the IC50 worked out at 58.9 ± 4.31 µM in data set [1] (setting [4]) and 40 ± 2.5 µM in data set [2] (setting [5]). Further, the CC50 at 48 h in data set [3] is 16.7 µM.
Turning to `Oc1cc(O)c2c(c1)CCc1cc(O)c(O)cc1-2` [Compound 10, 2,4,6,7-tetrahydroxy-9,10-dihydrophenanthrene], the IC50 was above 80 µM in data set [1] (setting [4]) and 58.3 ± 1.96 µM in data set [2] (setting [5]). Besides, the CC50 at 48 h in data set [3] (setting [6]) was above 80 µM.
Take `O=c1c(O)c(-c2cc(O)c(O)c(O)c2)oc2cc(O)cc(O)c12` [Compound 11, myricetin]: the IC50 in data set [1] (setting [4]) and in data set [2] (setting [5]) was above 80 µM in each case. The CC50 at 48 h in data set [3] (setting [6]) is above 80 µM.
`O=c1c(O[C@@H]2O[C@H](CO)[C@@H](O)[C@H](O)[C@H]2O)c(-c2ccc(O)c(O)c2)oc2cc(O)cc(O)c12` [Compound 13, quercetin-3-O-β-D-glucopyranoside]: the IC50 in data set [1] (setting [4]) and in data set [2] (setting [5]) was above 80 µM each time. The CC50 at 48 h in data set [3] (setting [6]) was above 80 µM.
As to `O=c1c(O[C@@H]2O[C@H](CO)[C@H](O)[C@H](O)[C@H]2O)c(-c2ccc(O)c(O)c2)oc2cc(O)cc(O)c12` [Compound 14, quercetin-3-O-β-D-galactopyranoside], the IC50 in data set [1] (setting [4]) was 68.9 ± 4.31 µM; in data set [2] (setting [5]) it was 48.9 µM; in data set [2] (pure compounds, P. falciparum K1 strain, mean ± S.D. of three determinations, read-out: IC50 K1), 48.3 ± 1.21 µM. Also, in data set [3] (setting [6]), the CC50 at 48 h was above 80 µM.
With `COc1cccc2c1C(=O)c1c(O)c3c(c(O)c1C2=O)C[C@@](O)(C(=O)CO)C[C@@H]3O[C@H]1C[C@H](N)[C@H](O)[C@H](C)O1` [Doxorubicin, reference compound], in data set [3] (setting [6]), the CC50 at 48 h came to 1.96 ± 0.11 µM.
